# From patent US12509431B2, “1,4-dihydroquinazolinone compounds and uses thereof” (Edgewise Therapeutics, Inc., priority 2022, dated 2025)
# Assays:
# Assay type in all cases: biochemical
# Details in all cases: Table 8
# [1] = test system: Rabbit Skeletal myofibrils (rabbit psoas muscle); test: Myofibril ATPase assay (PK/LDH NADH-coupled), skeletal myofibrils
# Method in brief: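 Rabbit psoas myofibrils in pCa (PIPES/CaCl2/EGTA, pH 7.0) buffer; ADP coupled via PK/LDH to NADH loss, read at 340 nm every 1.5–2 min for 75 min. Slopes normalized to vehicle (100%) and fit to 4-parameter logistic for EC25, plus EC50 for inhibitors.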
# [2] = target: T1, Porcine Ventricle myofibrils (left ventricle of Yucatan minipigs) (Sus scrofa, UniProt P79293); test: Myofibril ATPase assay (PK/LDH NADH-coupled), ventricle myofibrils
# T1 construct: Myofibrils from porcine cardiac muscle was isolated from the left ventricle of Yucatan minipigs; tissue Exemplar Genetics; host or cells: left ventricle of Yucatan minipigs
# T1 sequence (P79293 whole entry): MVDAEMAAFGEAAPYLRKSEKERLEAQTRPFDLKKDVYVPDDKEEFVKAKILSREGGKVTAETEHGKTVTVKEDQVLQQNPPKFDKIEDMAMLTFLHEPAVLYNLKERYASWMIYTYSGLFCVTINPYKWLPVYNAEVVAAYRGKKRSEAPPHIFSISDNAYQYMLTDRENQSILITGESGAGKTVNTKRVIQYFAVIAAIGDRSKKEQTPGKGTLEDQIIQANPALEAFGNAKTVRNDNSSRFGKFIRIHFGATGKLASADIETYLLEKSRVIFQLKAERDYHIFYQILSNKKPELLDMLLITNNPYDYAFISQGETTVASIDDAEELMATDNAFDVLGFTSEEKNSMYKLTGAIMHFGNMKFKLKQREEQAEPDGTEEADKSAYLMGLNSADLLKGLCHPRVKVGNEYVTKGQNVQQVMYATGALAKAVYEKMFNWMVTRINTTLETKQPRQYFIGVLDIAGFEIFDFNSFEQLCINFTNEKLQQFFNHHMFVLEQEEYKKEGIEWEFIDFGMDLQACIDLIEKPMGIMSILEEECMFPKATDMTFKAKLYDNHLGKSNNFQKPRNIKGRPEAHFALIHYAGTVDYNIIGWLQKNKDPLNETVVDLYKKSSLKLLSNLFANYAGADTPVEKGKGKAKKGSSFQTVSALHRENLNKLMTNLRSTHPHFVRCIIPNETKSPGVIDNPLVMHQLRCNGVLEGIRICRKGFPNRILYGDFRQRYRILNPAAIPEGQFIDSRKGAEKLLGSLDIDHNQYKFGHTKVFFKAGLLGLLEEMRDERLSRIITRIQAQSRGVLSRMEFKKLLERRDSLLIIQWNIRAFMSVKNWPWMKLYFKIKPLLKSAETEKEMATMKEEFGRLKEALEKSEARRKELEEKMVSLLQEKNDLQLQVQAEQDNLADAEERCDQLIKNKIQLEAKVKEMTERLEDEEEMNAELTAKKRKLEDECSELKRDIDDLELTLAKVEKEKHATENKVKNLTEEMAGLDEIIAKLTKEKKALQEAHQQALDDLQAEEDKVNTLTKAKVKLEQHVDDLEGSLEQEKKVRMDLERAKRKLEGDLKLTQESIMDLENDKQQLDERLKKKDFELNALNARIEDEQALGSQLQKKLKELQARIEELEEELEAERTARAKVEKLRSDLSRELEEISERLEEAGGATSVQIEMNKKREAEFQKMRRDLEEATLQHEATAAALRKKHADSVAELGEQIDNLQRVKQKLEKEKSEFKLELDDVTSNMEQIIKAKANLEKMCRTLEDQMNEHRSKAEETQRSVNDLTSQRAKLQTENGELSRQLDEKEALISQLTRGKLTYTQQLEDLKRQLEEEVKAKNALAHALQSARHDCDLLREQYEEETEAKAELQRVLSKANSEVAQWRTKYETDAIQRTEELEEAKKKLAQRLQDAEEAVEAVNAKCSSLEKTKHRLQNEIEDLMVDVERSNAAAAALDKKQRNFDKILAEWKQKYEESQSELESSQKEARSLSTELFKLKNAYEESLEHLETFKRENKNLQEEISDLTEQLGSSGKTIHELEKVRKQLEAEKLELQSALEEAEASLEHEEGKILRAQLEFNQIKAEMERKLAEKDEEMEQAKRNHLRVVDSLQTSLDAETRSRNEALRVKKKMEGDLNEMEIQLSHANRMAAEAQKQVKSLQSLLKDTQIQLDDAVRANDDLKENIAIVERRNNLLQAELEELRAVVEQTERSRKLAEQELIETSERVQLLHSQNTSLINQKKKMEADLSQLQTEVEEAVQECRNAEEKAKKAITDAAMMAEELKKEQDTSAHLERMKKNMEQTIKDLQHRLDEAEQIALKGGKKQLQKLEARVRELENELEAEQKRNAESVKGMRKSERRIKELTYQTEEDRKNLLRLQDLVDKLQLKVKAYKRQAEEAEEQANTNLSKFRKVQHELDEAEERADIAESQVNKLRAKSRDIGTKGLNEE
# Method in brief: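 Yucatan minipig left-ventricle myofibrils; ATPase measured by PK/LDH-coupled NADH loss at 340 nm, read every 1.5-2 min for 75 min. Slopes normalized to vehicle (100%) and fit to 4-parameter logistic model; EC25 and, for inhibitors, EC50 calculated.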
# Porcine Atria myofibrils = test: Myofibril ATPase assay (PK/LDH NADH-coupled), atria myofibrils
# Method in brief: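 Porcine atrial myofibril ATPase followed via PK/LDH-coupled NADH depletion, absorbance at 340 nm read every 1.5-2 min over 75 min. Slopes (mAU/min) normalized to vehicle as 100% and fit to a 4-parameter logistic; EC25% derived, plus EC50% for inhibitors.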
SMILES,Rabbit Psoas IC25 [1],Porcine Ventricle IC25 [2],Porcine Atria IC25 (Porcine Atria myofibrils)
COc1cccnc1[C@H](C)NC(=O)CN1Cc2cc(F)ccc2NC1=O [Compound B187],100 µM,100 µM,68.80 µM
C[C@@H](NC(=O)CN1Cc2c(ccc(F)c2F)NC1=O)c1ccc(C#N)cc1F [Compound B188],0.4649 µM,1.834 µM,0.42 µM
C[C@@H](NC(=O)CN1Cc2c(ccc(F)c2F)NC1=O)c1ncc(F)cc1F [Compound B190],9.504 µM,50.31 µM,17.83 µM
Cc1cccnc1[C@@H](C)NC(=O)CN1Cc2cc(F)ccc2NC1=O [Compound B192],100 µM,100 µM,100.00 µM
Cc1cccnc1[C@H](C)NC(=O)CN1Cc2cc(F)ccc2NC1=O [Compound B193],41.67 µM,40.61 µM,28.17 µM
Cc1cnc([C@@H](C)NC(=O)CN2Cc3cc(F)ccc3NC2=O)c(F)c1 [Compound B194],6.088 µM,78.56 µM,3.71 µM
Cc1cnc([C@H](C)NC(=O)CN2Cc3cc(F)ccc3NC2=O)c(F)c1 [Compound B195],100 µM,100 µM,100.00 µM
C[C@@H](NC(=O)CN1Cc2cc(C#N)ccc2NC1=O)c1ncc(F)cc1F [Compound B196],100 µM,100 µM,100.00 µM
C[C@H](NC(=O)CN1Cc2cc(C#N)ccc2NC1=O)c1ncc(F)cc1F [Compound B197],87.6 µM,100 µM,18.70 µM
C[C@@H](NC(=O)CN1Cc2cc(F)ccc2NC1=O)c1ncc(C#N)cc1F [Compound B198],100 µM,100 µM,100.00 µM
C[C@H]1c2ccccc2NC(=O)N1CC(=O)N[C@@H](CO)c1ccc(F)cc1F [Compound B201],18.61 µM,100 µM,25.98 µM
CC(NC(=O)CN1Cc2cc(F)ccc2NC1=O)c1ccccc1Br (stereo not drawn) [Compound B202],0.1741 µM,1.035 µM,0.18 µM
C[C@@H](NC(=O)CN1Cc2cc(F)ccc2NC1=O)c1ccc(C#N)cc1 [Compound B203],14.19 µM,23.26 µM,5.48 µM
C[C@H](NC(=O)CN1Cc2cc(F)ccc2NC1=O)c1ccc(C#N)cc1 [Compound B204],0.1501 µM,1.393 µM,0.27 µM
C[C@@H](NC(=O)CN1Cc2cc(F)ccc2NC1=O)c1ccc(C#N)cc1F [Compound B205],6.054 µM,16.29 µM,2.07 µM
CC(C)C[C@@H](C(=O)N[C@@H](C)c1ccc(F)cc1F)N1Cc2cc(F)ccc2NC1=O [Compound B207],100 µM,100 µM,100.00 µM
CC(C)C[C@H](C(=O)N[C@@H](C)c1ccc(F)cc1F)N1Cc2cc(F)ccc2NC1=O [Compound B208],100 µM,100 µM,100.00 µM
Cc1ccc([C@@H](C)NC(=O)CN2Cc3cc(F)ccc3NC2=O)c(F)c1 [Compound B209],100 µM,100 µM,12.15 µM

SMILES,Rabbit Psoas IC25 [1],Porcine Ventricle IC25 [2],Porcine Atria IC25 (Porcine Atria myofibrils)
Cc1ccc([C@H](C)NC(=O)CN2Cc3cc(F)ccc3NC2=O)c(F)c1 [Compound B210],0.1421 µM,2.251 µM,0.18 µM
C[C@@H](C(=O)N[C@H](CO)c1ccc(F)cc1F)N1Cc2c(Cl)cccc2NC1=O [Compound B211],100 µM,100 µM,100.00 µM
C[C@@H](C(=O)N[C@@H](CO)c1ccc(F)cc1F)N1Cc2c(Cl)cccc2NC1=O [Compound B212],77.91 µM,15.17 µM,1.52 µM
C[C@H](C(=O)N[C@H](CO)c1ccc(F)cc1F)N1Cc2c(Cl)cccc2NC1=O [Compound B213],100 µM,100 µM,97.43 µM
C[C@H](C(=O)N[C@@H](CO)c1ccc(F)cc1F)N1Cc2c(Cl)cccc2NC1=O [Compound B214],0.088 µM,0.2408 µM,0.07 µM
C[C@@H](NC(=O)CN1Cc2cc(F)ccc2NC1=O)c1ncccn1 [Compound B215],100 µM,100 µM,100.00 µM
C[C@H](NC(=O)CN1Cc2cc(F)ccc2NC1=O)c1ncccn1 [Compound B216],100 µM,100 µM,100.00 µM
O=C(CN1Cc2cc(F)ccc2NC1=O)N[C@H](CO)c1ccc(F)cc1F [Compound B217],0.0678 µM,0.8987 µM,0.13 µM
O=C(CN1Cc2cc(F)ccc2NC1=O)N[C@@H](CO)c1ccc(F)cc1F [Compound B218],9.306 µM,100 µM,8.55 µM
C[C@H](NC(=O)[C@H](Cc1ccccc1)N1Cc2cc(F)ccc2NC1=O)c1ccc(F)cc1F [Compound B219],31.8 µM,100 µM,100.00 µM
C[C@H](NC(=O)[C@@H](Cc1ccccc1)N1Cc2cc(F)ccc2NC1=O)c1ccc(F)cc1F [Compound B220],47.56 µM,100 µM,53.57 µM
C[C@H](NC(=O)CN1C(=O)Nc2ccc(F)cc2C12CC2)c1ccc(F)cc1F [Compound B221],0.0174 µM,0.1086 µM,0.03 µM
C[C@H](NC(=O)[C@H](C)N1Cc2c(F)cccc2NC1=O)c1ccc(F)cc1F [Compound B222],0.041 µM,0.4365 µM,0.05 µM
C[C@H](NC(=O)[C@@H](C)N1Cc2c(F)cccc2NC1=O)c1ccc(F)cc1F [Compound B223],1.426 µM,3.783 µM,0.44 µM
Cc1cc(F)ccc1[C@@H](C)NC(=O)CN1Cc2cc(F)ccc2NC1=O [Compound B224],3.991 µM,100 µM,28.57 µM
Cc1cc(F)ccc1[C@H](C)NC(=O)CN1Cc2cc(F)ccc2NC1=O [Compound B225],0.0175 µM,0.1849 µM,0.05 µM
C[C@H](NC(=O)CN1Cc2c(Br)cccc2NC1=O)c1ccc(F)cc1F [Compound B226],0.0244 µM,0.2274 µM,0.14 µM
